Literature values in PMC9610729, “Anticholinesterase Activity of Selected Medicinal Plants from Navarra Region of Spain and a Detailed Phytochemical Investigation of Origanum vulgare L. ssp. vulgare” (Molecules, 2022).
Like-named read-outs stand apart in the source and are kept apart here.

How the values were obtained:
AChE [1] = test system: AChE
AChE [2] = test system: AChE; parameters: method as in PMID 35745206

SMILES	AChE inhibition (AChE [1])	AChE inhibition (AChE [2])
O=c1c(O)c(-c2ccc(O)cc2)oc2cc(O)cc(O)c12 [kaempferol]	efficient AChE inhibitors	–
O=c1cc(-c2ccc(O)c(O)c2)oc2cc(O)cc(O)c12 [luteolin]	to a lesser extent	–
COc1cc(C(=O)O)cc(OC)c1O [Compound 7, Syringic acid]	–	high inhibition percentage
COC(=O)c1cc(OC)c(O)c(OC)c1 [methyl syringinate]	–	best properties
O=c1c(O)c(-c2ccc(O)c(O)c2)oc2cc(O)cc(O)c12 [quercetin]	efficient AChE inhibitors	–
